Measured values from article PMC4865845, “A human genome-wide loss-of-function screen identifies effective chikungunya antiviral drugs” (Nature Communications, 2016).

Tested on: CHIKV
Type: cell-based, chikungunya virus

Row | Substance | Score_si3 | Score_si4 | also measured
1 | s18076 (GAAATACCCTATTACCAAA; chemistry not given here) [reference compound] | -0.61 |  | 
2 | s18077 (CCTGTTCATTGATCGAACA; chemistry not given here) [reference compound] | -0.59 |  | 
3 | s18079 (CAATAGTAAAGGGATATAA; chemistry not given here) [reference compound] |  | -0.28 | 
4 | s18239 (CGGTGACTCTTTATGCACA; chemistry not given here) |  |  | Score_si2: 1.37
5 | s18240 (GATTGATGCTGGAAGTAGA; chemistry not given here) | 1.21 |  | 
6 | s18241 (GCTTGATGGTTCAACTCCA; chemistry not given here) |  |  | Score_si1: 2.01
7 | s18269 (CCATTGCGGAGATCAAGAA; chemistry not given here) |  | 0.18 | 
8 | s18271 (CCTCTTCACTAAGACCCAT; chemistry not given here) | 1.67 |  | 
9 | s18704 (sense GCAGATTATTTGCAAGCGA; chemistry not given here) [reference compound] | -0.73 |  | 
10 | s18705 (sense GCTCGTTACCTACATAGTA; chemistry not given here) [reference compound] |  |  | Score_si2: -0.84
11 | s18706 (sense GAATCTGAACGAACGATAT; chemistry not given here) [reference compound] |  | -0.67 | 
12 | s18906 (sense GAAGGAATTTCATTTGACA; chemistry not given here) | 1.68 |  | 
13 | s18908 (sense GCAGATCACATGAAGAGAA; chemistry not given here) |  |  | Score_si2: 1.75
14 | s19038 (sense GGAATATTCTTCAGCTACA; chemistry not given here) | 1.51 |  | 
15 | s19040 (sense GTACATAACATCAATTTCA; chemistry not given here) |  | 0.32 | 
16 | s19089 (sense GGATAAGACAGTAACCCGA; chemistry not given here) [reference compound] | -0.56 |  | 
17 | s19090 (sense GGATCTGACTATTCGCACT; chemistry not given here) [reference compound] |  | 0.04 | 
18 | s19091 (sense CAACAACCTTACACGAGTA; chemistry not given here) [reference compound] |  |  | Score_si2: -0.78
19 | s19989 (sense CTATGCTACCCTCTACTTT; chemistry not given here) |  | 0.18 | 
20 | s19990 (sense GGCTCTGACTACAAACTGA; chemistry not given here) | 0.89 |  | 
21 | s20340 (sense CAGGCTATCTGAACACGGT; chemistry not given here) | 1.49 |  | 
22 | s20508 (sense CACTTGAGGAGTTACTGAA; chemistry not given here) [reference compound] |  | -0.76 | 
23 | s20509 (sense GGACGGCCCAAATCCAAAA; chemistry not given here) [reference compound] | -0.99 |  | 
24 | s20629 (sense GGAGAAAGAATCAACGGAA; chemistry not given here) |  |  | Score_si2: 2
25 | s20630 (sense GCAAGCTGCTGATCGAGTT; chemistry not given here) |  | 0.85 | 
26 | s20631 (sense GGACGGAAGCGAAAATCGA; chemistry not given here) | 1.89 |  | 
27 | s20649 (sense GAATTACGGAGTCAACAAA; chemistry not given here) [reference compound] | -1.04 |  | 

Row | Substance | Score_si3 | Score_si4 | also measured
28 | s20833 (sense GAATATGACTCTGCAAAGA; chemistry not given here) |  | 0.65 | 
29 | s21424 (sense GCAGTGAAATATCCATGAT; chemistry not given here) |  |  | Score_si2: 0.74
30 | s21425 (sense GCCTGTTACAGATGACATA; chemistry not given here) | 0.63 |  | 
31 | s21552 (sense TCGCTTCTGTATTTATGTT; chemistry not given here) |  |  | Score_si2: 1.41
32 | s21554 (sense CAGTATTGGTTATGAGTCT; chemistry not given here) |  | 0.67 | 
33 | s21624 (sense GGTGTAACCGATTCACTAT; chemistry not given here) | 0.86 |  | 
34 | s21625 (sense GCAGCCTTGTTGCTCTTAA; chemistry not given here) |  |  | Score_si2: 1.37
35 | s21626 (sense GGCAGTTGATTGTGGATGA; chemistry not given here) |  | 0.37 | 
36 | s24800 (sense CTATGGATGTTGATGTAGA; chemistry not given here) |  |  | Score_si2: 1.78
37 | s24801 (sense CCAAGGTCCTGAGGTCTAA; chemistry not given here) | 1.43 |  | 
38 | s24923 (sense GGAAGTGAAGGAGTAAGTA; chemistry not given here) [reference compound] |  | -0.27 | 
39 | s24924 (sense CAGTCGTCCTCAGATGATA; chemistry not given here) [reference compound] | -0.67 |  | 
40 | s25038 (sense GGTCTTTACTAGGTGTATT; chemistry not given here) [reference compound] |  | -0.18 | 
41 | s25039 (sense CAAATTTCCTGTTAATCGA; chemistry not given here) [reference compound] | -0.41 |  | 
42 | s25184 (sense CCCATCAACTTCTCCGTGA; chemistry not given here) |  | 0.53 | 
43 | s25186 (sense ACTTCTCCGTGATCCTGAA; chemistry not given here) |  |  | Score_si2: 1.53
44 | s25485 (sense ACTTCCTGTTGGTCTACAA; chemistry not given here) | 1.19 |  | 
45 | s25486 (sense GGTCTACAATCGGATGACA; chemistry not given here) |  | 1.05 | 
46 | s25487 (sense AGTATTTGTTGGTTCATAA; chemistry not given here) |  |  | Score_si2: 1.54
47 | s25624 (sense GGAATGGTGTTGATACAAA; chemistry not given here) [reference compound] | -0.7 |  | 
48 | s25626 (sense CAAATCCTATAGTATAACA; chemistry not given here) [reference compound] |  | -0.37 | 
49 | s26119 (sense CATGGATGAGTTTACCCAA; chemistry not given here) [reference compound] | -0.65 |  | 
50 | s26120 (sense GGCCCTTCATCGATAGCTA; chemistry not given here) [reference compound] |  |  | Score_si2: -0.97
51 | s26228 (sense GAACCTCACTGAGCCTTGA; chemistry not given here) |  |  | Score_si2: 0.75
52 | s26229 (sense GGTGGTATACGGGACCAAT; chemistry not given here) | -0.1 |  | 
53 | s26230 (sense CGGGACCAATTACCGCAAA; chemistry not given here) |  | -0.18 | 
54 | s26801 (sense CCGAGAACCTCACAGAGAA; chemistry not given here) |  |  | Score_si1: 2.26

Row | Substance | Score_si3 | Score_si4 | also measured
55 | s26802 (sense ACATCTCAGGGACCCATTT; chemistry not given here) |  | 1.65 | 
56 | s26872 (sense GGGTTGACCTCATCCTCGA; chemistry not given here) |  | 1.69 | 
57 | s26873 (sense CTTCGAGACCGGTTCAAGA; chemistry not given here) |  |  | Score_si1: 2.15
58 | s27208 (sense GACACTTGTTTCTTACCTA; chemistry not given here) [reference compound] |  | 0.22 | 
59 | s27209 (sense GGGTATAGAGGATAACCAA; chemistry not given here) [reference compound] |  |  | Score_si2: -0.58
60 | s27210 (sense GGTTTTAAACATAACGAAA; chemistry not given here) [reference compound] | -0.32 |  | 
61 | s27235 (sense AGACCCACACTAAAGAATT; chemistry not given here) [reference compound] |  |  | Score_si2: -0.6
62 | s27237 (sense ACACTAAAGAATTCCGGAA; chemistry not given here) [reference compound] | -0.27 |  | 
63 | s27640 (sense TGAAAAACGTAGAAATGAA; chemistry not given here) |  |  | Score_si2: 1.74
64 | s27641 (sense GGGAAACAGTTGGAAGAGA; chemistry not given here) | 1.64 |  | 
65 | s27642 (sense GCATGATGTTCGTCCGCAA; chemistry not given here) |  | 1.26 | 
66 | s28294 (sense CATTCTGTGGTGAAACATT; chemistry not given here) |  |  | Score_si1: 1.28
67 | s28296 (sense CTTCCTCGGTGGAACACGA; chemistry not given here) |  |  | Score_si2: 1.22
68 | s28365 (sense AGATCGACAAGAACGAAGA; chemistry not given here) [reference compound] |  | -0.72 | 
69 | s28367 (sense CGACAAGAACGAAGACAGA; chemistry not given here) [reference compound] |  |  | Score_si2: -1.08
70 | s28378 (sense CATTGTCACTTATTCGACT; chemistry not given here) |  | 1.57 | 
71 | s28379 (sense GAGTTACGATTGTACCCTA; chemistry not given here) | 1.67 |  | 
72 | s28640 (CACTCACACCATCCTATGA; chemistry not given here) |  |  | Score_si1: 1.62
73 | s28991 (GAAGAGGTTTTGGAGTATA; chemistry not given here) |  | 0.22 | 
74 | s28992 (GAGCAACTCTGGTCGTGTA; chemistry not given here) | 0.46 |  | 
75 | s28993 (CCATAGATCTGAATTGGGA; chemistry not given here) |  |  | Score_si2: 0.6
76 | s29015 (GAGAGTATATTGACTATGA; chemistry not given here) |  | 0.52 | 
77 | s29017 (GTCAGTACTTTATCTCGTT; chemistry not given here) |  |  | Score_si2: 1.25
78 | s29268 (GGATGCGAAAGACAGAGTA; chemistry not given here) |  |  | Score_si2: 1.55
79 | s29269 (CAGTTTACCGAGGAAGAAA; chemistry not given here) | 1.26 |  | 
80 | s30117 (GGTCTTTGGTGGTGTACAA; chemistry not given here) | 0.96 |  | 
